# Data: patent publication US5942522A, “Antiviral compounds and antihypertensive compounds” (Schering Corporation, priority 1997, dated 1999)
# Like-named read-outs stand apart in the source and are kept apart here.
# Assays:
# herpes virus = details: added to lidocaine or lidocaine hydrochloride; cited from earlier work
# [1] = molecular target: T1, cGMP phosphodiesterase (cGMP-PDE) (Bos taurus, UniProt Q28156); assay: Inhibition of cGMP phosphodiesterase in vitro; format: biochemical, bovine; details: 1 μM 3H-cGMP, pH 7.5, 25 min, room temperature
# T1 construct: is a homogeneous enzyme obtained from bovine lung; from tissue; host or cells: bovine lung
# [2] = Blood pressure in conscious spontaneously hypertensive rats (SHR); format: in vivo
# Method: The ability of the compounds to lower blood pressure can be assessed in vivo in conscious spontaneously hypertensive rats (SHR). SHR are purchased from Taconic Farms, Germantown, N.Y. and are approximately 16-18 weeks old when anesthetized with ether. The caudal ventral tail) artery is cannulated with polyethylene tubing (PE50) and blood pressure and heart rate are recorded as described by Baum, T. et. al, J. Cardiovasc. Pharmacol. Vol 5, pp. 665-667, (1983). Rats are placed into pastic cylindrical cages where they rapidly recover consciousness. Blood pressure and heart rate are allowed to stabilize for approximately 90 minutes prior to compound administration. Compounds are administered orally as solutions or suspensions in 0.4% aqueous methylcellulose vehicle via a feeding needle. The compound or 0.4% aqueous methylcellulose vehicle are given in a volume of 4 ml/kg to SHRs that had been fasted overnight. Alternatively,compounds are administered intravenously. The compound is solubilized with a minimum amount of an organic solvent such as ethanol or dimethylsulfoxide and given in physiological saline. Activity is expressed as the fall in mean blood pressure (MBP) in millimeters of mercury (mm Hg). Compound-induced changes are compared with the changes in an appropriate placebo group.
# [3] = Compound toxicity assay: inhibition of HeLa cell translation (3H-leucine incorporation); format: cell-based; details: human; Table II; HeLa cells; read-out: Cytotoxicity 3H-LEU assay IC50
# Method: (§1) HeLa and Vero cell cultures were maintained in Eagles Minimal Essential Medium (EMEM) which was supplemented with glutamine, penicillin, streptomycin and 10% fetal calf serum (10% EMEM). Stock cultures of HSV-2 (strain MS available from ATCC VR-540) were grown in and harvested from Vero cells. Viral stocks were titered in Vero cells according to established procedures.
# HeLa cells were treated with inhibitory compound for 24 hours, after which levels of translational activity were assayed.
# For assay of translational activity, HeLa cultures were grown to 80% confluency in 96 well microtiter plates, treated with appropriate concentrations of compound in 2% EMEM during an overnight incubation at 37° C., then rinsed with HBSS and overlaid with […] of 2% EMEM containing 8 uCi of tritiated leucine (^3 H-LEU, […], Amersham Corp., Arlington Heights, Ill.). After a 1 hour incubation at 36.5°C., the cells were rinsed twice with phosphate buffered saline (PBS) and lysed in 400 ul/well of 1×PBS, 0.5% sodium dodecyl sulphate (SDS). After a 10 min incubation at 36.5° C., the contents of the well were transferred to a well in a Millititer HA microfiltration plate (Millipore Corp., Bedford, Mass.). The TCA insoluble proteins were precipitated onto the filter disc by a 10 min fixation with 5% TCA, followed by filtration under vacuum and three 10 minute rinses with 95% ethanol. The filters were dried at room temperature, cut from the milltitier plate and transferred to scintillation vials. TCA precipitable counts were assayed in 5 ml of Scintisol (Isolab, Akron, Ohio). The inhibitory activity of a compound was plotted versus the concentration and an IC50 value (that concentration of the compound required to decrease cellular translational activity by 50%) was derived for each compound.
# HSV-2 (strain MS) = assay: HSV-β-Gal assay: transient expression of beta galactosidase in transfected HeLa cells superinfected with HSV-2; format: cell-based; details: 24 h
# Method: as §1
# Plasmid pON 245^ori- contains the promoter of the HSV-1 thymidine kinase (tk) gene located immediately 5'of the E. coli lac Z gene. In this arrangement, the tk promoter controls transcription from the bacterial gene in transient expression assays. Additionally, an SV40 polyadenylation signal is present at the 3' end of the lac Z gene to allow for the efficient translation of the mRNA in eucaryotic cells. The expression of beta galactosidase in a transient assay using pON 245^ori- is dependent upon superinfection of the transfected cells with HSV. […] For example see U.S. application Ser. No. 07/435,491 filed Sep. 5, 1989, the disclosure of which is incorporated herein by reference thereto.
# HeLa cells were seeded into 96 well microtiter plates and allowed to grow to 80% confluency (approximately 35000 cells/well). One half microgram of plasmid pON 245^ori- DNA was introduced into the cells of each well by the […] precipitation technique (Grahman and Van der Eb, 1973). Four to six hours later, the cells were rinsed with hank's Balanced Salt Solution (HBSS), overlaid with 10% EMEM and incubated at 37° C. At 24 hours post-transfection, cells were rinsed, overlaid with 10% EMEM again and re-incubated at 37° C. At 48 hours post-transfection, cells were rinsed and overlaid with either EMEM containing 2% fetal calf serum (2% EMEM), 2% EMEM containing HSV-2 (strain MS, Multiplicity of Infection [moi]=5 pfu/cell) or 2% EMEM containing HSV-2 and the appropriate concentration of Schering compound to be tested. Twenty-four hours later, the cells were harvested and assayed for beta galactosidase activity as described below.
# All determinations of beta galactosidase activity were performed in 96 well microtiter plates. The intracellular level of beta galactosidase activity in each well was determined from cell lysates of the monolayer cultures. Aliquots were assayed by incubation in the presence of beta galactosidase substrate, 4-methylumbelliferyl-β-D-galactoside (MUG, 125 ug/ml, Sigma), for 2 hours. The generation of fluorescent product was quantified on a Microfluor microfluorimeter (Dynatech) after addition of 0.1M glycine, pH 10.3 (Spaete and Mocarski, 1985). The inhibitory activity of a compound was plotted versus the concentration and an IC50 value (the concentration of compound required to reduce beta glactosidase expression by 50%) was obtained for each compound tested.
# HSV-2, strain MS = assay: Prophylactic guinea pig model of HSV infection; format: in vivo; details: 60 mg/kg s.c. (test compounds) T.I.D., 10 days, first dose 24 h before infection; for MSL (Maximum Lesion score): scale of 1-4
# Method: The in vivo assessment of anti-HSV efficacy was determined in the prophylactic guinea pig model of HSV infection described by Stansberry et al (1982). Dosing of guinea pigs comprised an initial treatment with test compound given 24 hours prior to virus infection and subsequent administration of the compound every eight hours (T.I.D.) for a total of 10 days. Test compounds were administered subcutaneously in 0.5% buffered methyl celluslose at a dose of 60 mg per kg body weight of the animal. Animals were monitored daily for the development of genital lesions and neurological symptomology, both of which were recorded and compared to the results obtained with parallel groups which received placebo or acyclovir treatment. Efficacy was evaluated for each compound by scoring the ability of the compound to ameliorate genital lesions produced by infection with HSV-2, strain MS, expressed as Maximum Lesion Scores (MLS) on a scale of 1 (least lesions) to 4 (severe lesions).
# HeLa cells = assay: Compound toxicity assay: inhibition of HeLa cell translation (3H-leucine incorporation); format: cell-based; details: Homo sapiens, Table II^1, read-out: Cytoxicity 3H-LEU assay IC50
# HSV-2 = details: cited from earlier work
# HSV-1 = details: cited from earlier work
# [4] = Human alphaherpesvirus 2, Table II^1, HeLa cells, HSV-2 strain MS, read-out: Anti-HSV activity HSV-β-Gal assay IC50
smiles,measurement,setting,value
CC(C)(CO)[C@@H](O)C(=O)NCCCO [dexpanthenol],enhancement of antiviral activity of lidocaine or lidocaine hydrochloride,herpes virus,significantly enhances
"CCOC(=O)c1c(OC)c2cc(C)ccc2n(Cc2ccccc2)c1=O [Compound 7, 1-benzyl-3-ethoxycarbonyl-4-methoxy-6-methyl-2(1H)-quinolinone]",IC50,[1]; Table VII,8 µM
same,MBP (fall in mean blood pressure),"[2]; Table VII, at 25 mpk (P.O.)",0 mm Hg
same,CC50 at 24 h,[3],37 µg/mL
same,IC50,"HSV-2 (strain MS); Human alphaherpesvirus 2, HeLa, read-out: Anti-HSV activity, HSV-β-GAL assay IC50",3 µg/mL
"CCCCCCn1c(=O)c(CO)c(OC)c2cc(C)ccc21 [Compound 9, 1-Hexyl-3-Hydroxymethyl-4-Methoxy-6-Methyl-2(1H)-Quinolinone]",IC50,[1]; Table VI,6 µM
same,Neurological dysfunction (percentage animals developing loss of bladder/hindlimb control),"HSV-2, strain MS",44%
same,MSL (Maximum Lesion score),"HSV-2, strain MS",1.44
same,CC50 at 24 h,[3],25 µg/mL
same,IC50,"HSV-2 (strain MS); Human alphaherpesvirus 2, Table II, HeLa cells, HSV-2 strain MS, read-out: Anti-HSV activity, HSV-β-GAL assay IC50",< 3 µg/mL
"Cc1c(OC(=O)c2ccc[nH]2)ccc2c(N)cc(=O)oc12 [Compound 70, 4-Amino-7-(Pyrrol-2-carbonyloxy)-8-Methyl-Benzopyran-2-one]",IC50,HeLa cells,74 µg/mL
same,IC50,HSV-2 (strain MS); [4],15.5 µg/mL
"Nc1nc2c(ncn2COCCO)c(=O)[nH]1 [Acyclovir, 9-[(2-hydroxyethoxy)methyl]guanine, reference compound]",Neurological dysfunction (percentage animals developing loss of bladder/hindlimb control),"HSV-2, strain MS",44%
same,MSL (Maximum Lesion score),"HSV-2, strain MS",1.61
CCOC(=O)c1c(OCCN(C)C)c2cc(C)ccc2n(Cc2ccccc2)c1=O [Compound 27],IC50,[1]; Table VI,4 µM
same,MBP (fall in mean blood pressure),[2]; 25 mpk p.o.,19 mm of Hg
same,MBP (fall in mean blood pressure),[2]; 50 mpk p.o.,24 mm of Hg
same,MBP (fall in mean blood pressure),[2]; 100 mpk p.o.,59 mm of Hg
"Cc1c(OC(=O)c2cccn2C)ccc2c(N)cc(=O)oc12 [Compound 69, 4-Amino-7-(N-Methyl-Pyrrol-2-Carbonyloxy)-8-Methyl-Benzopyran-2-one]",IC50,HeLa cells,100 µg/mL
same,IC50,HSV-2 (strain MS); [4],9.8 µg/mL
"CCCCCCn1c(=O)c(C(=O)OCC)c(OC)c2cc(C)ccc21 [Compound 28, 1-hexyl-3-ethoxycarbonyl-4-methoxy-6-methyl-2(1H)-quinolinone]",IC50,[1]; Table VI,3 µM
CC(C)(CO)[C@@H](O)C(=O)NCCC(=O)O [pantothenic acid],enhancement of antiviral activity of lidocaine or lidocaine hydrochloride,herpes virus,significantly enhances
"CCN(CC)CC(=O)Nc1c(C)cccc1C [lidocaine, 2-(diethylamino)-N-(2,6-dimethylphenyl)acetamide]",antiviral activity in cell culture,HSV-2,antiviral agent
same,antiviral activity in cell culture,HSV-1,antiviral agent
